Reference: article PMC5976239 (Journal of medicinal chemistry, 2017)
≈ marks a conversion by molar mass, not a printed value.

Legend:
[1] = test system: C. albicans ATCC MYA-2876(S) (C); test: MIC determination by in vitro antifungal assay; type: cell-based; settings: Candida albicans, 48 h, read-out: MIC (MIC-0)
[2] = test system: Candida albicans ATCC 10231 (A); test: MIC determination by in vitro antifungal assay; type: cell-based; settings: ATCC10231, 48 h, read-out: MIC (MIC-0)
[3] = test system: Aspergillus terreus ATCC MYA-3633 (M); test: MIC determination against filamentous fungi; type: cell-based; settings: 48 h, read-out: MIC (MIC-0)
[4] = test system: Aspergillus nidulans ATCC 38163 (L); test: MIC determination against filamentous fungi; type: cell-based; settings: ATCC38163, 48 h, read-out: MIC (MIC-0)
[5] = test system: C. albicans ATCC 64124(R) (B); test: MIC determination by in vitro antifungal assay; type: cell-based; settings: Candida albicans, ATCC64124, 48 h, read-out: MIC (MIC-0)
[6] = test system: C. albicans ATCC MYA-1237(R) (F); test: MIC determination by in vitro antifungal assay; type: cell-based; settings: Candida albicans, 48 h, read-out: MIC (MIC-0)
[7] = test system: C. albicans ATCC 90819(R) (D); test: MIC determination by in vitro antifungal assay; type: cell-based; settings: Candida albicans, ATCC90819, 48 h, read-out: MIC (MIC-0)
[8] = test system: C. albicans ATCC MYA-1003(R) (G); test: MIC determination by in vitro antifungal assay; type: cell-based; settings: Candida albicans, 48 h, read-out: MIC (MIC-0)
[9] = test system: Aspergillus flavus ATCC MYA-3631 (K); test: MIC determination against filamentous fungi; type: cell-based; settings: 48 h, read-out: MIC (MIC-0)
[10] = test system: C. albicans ATCC MYA-2310(S) (E); test: MIC determination by in vitro antifungal assay; type: cell-based; settings: Candida albicans, 48 h, read-out: MIC (MIC-0)
[11] = test system: C. albicans, non-albicans Candida, and Aspergillus strains; test: Antifungal activity over the panel of 13 fungal strains; type: cell-based; settings: for MIC: read-out: antifungal activity class based on MIC values; for antifungal activity class based on MIC values: against all fungal strains tested (5 and 6 except strain K); for antifungal activity (in words): overall, fungal strains tested (27 except strains K and L)
[12] = Hemolytic activity assay; type: cell-based; settings: mouse, murine red blood cells (mRBCs)
[13] = test system: Candida albicans ATCC 10231 (A); test: MIC determination in the presence and absence of FBS; type: cell-based; settings: strains A, J, and L; +10% FBS versus no FBS
[14] = test system: C. albicans ATCC 64124 (strain B) biofilms; test: Biofilm assay

MIC [1]	MIC [2]	MIC [3]	MIC [4]	MIC [5]	MIC [6]	MIC [7]	MIC [8]	MIC [9]	MIC [10]	MIC [11]	antifungal activity class based on MIC values [11]	increase in MIC in biofilms (SMIC50 and SMIC80 versus MIC in liquid cultures) [14]	Structure (SMILES)	antifungal activity (in words) [11]	hemolysis at 60 min, 62.5 µg/mL [12]	hemolysis at 60 min, 7.8 µg/mL [12]	antifungal activity in the presence of FBS (in words) [13]
0.06 µg/mL (≈ 0.0549 µM)	0.975 µg/mL (≈ 0.892 µM)	> 31.3 µg/mL	> 31.3 µg/mL	0.24 µg/mL (≈ 0.22 µM)	0.24 µg/mL (≈ 0.22 µM)	0.12 µg/mL (≈ 0.11 µM)	0.48 µg/mL (≈ 0.439 µM)	> 31.3 µg/mL	0.12 µg/mL (≈ 0.11 µM)	–	–	–	CC[C@H](C)C[C@H](C)CCCCCCCCC(=O)N[C@H]1C[C@@H](O)[C@@H](NCCN)NC(=O)[C@@H]2[C@@H](O)CCN2C(=O)[C@H]([C@H](O)CCN)NC(=O)[C@H]([C@H](O)[C@@H](O)c2ccc(O)cc2)NC(=O)[C@@H]2C[C@@H](O)CN2C(=O)[C@H]([C@@H](C)O)NC1=O [CAS, caspofungin, reference compound]	–	–	–	–
> 31.3 µg/mL	> 31.3 µg/mL	> 31.3 µg/mL	> 31.3 µg/mL	> 31.3 µg/mL	> 31.3 µg/mL	> 31.3 µg/mL	> 31.3 µg/mL	> 31.3 µg/mL	> 31.3 µg/mL	≥ 31.3 µg/mL	–	–	CN1CCNCC1 [Compound 1, N-methylpiperazine]	–	–	–	–
> 31.3 µg/mL	> 31.3 µg/mL	> 31.3 µg/mL	> 31.3 µg/mL	> 31.3 µg/mL	> 31.3 µg/mL	> 31.3 µg/mL	> 31.3 µg/mL	> 31.3 µg/mL	> 31.3 µg/mL	≥ 31.3 µg/mL	–	–	CCCCCN1CCNCC1 [Compound 2, N-pentylpiperazine]	–	–	–	–
> 31.3 µg/mL	> 31.3 µg/mL	> 31.3 µg/mL	> 31.3 µg/mL	> 31.3 µg/mL	> 31.3 µg/mL	> 31.3 µg/mL	> 31.3 µg/mL	> 31.3 µg/mL	> 31.3 µg/mL	–	–	–	CCCCCCCCN1CCNCC1 [Compound 3, 1-Octyl Piperazine]	–	–	–	–
> 31.3 µg/mL	31.3 µg/mL (≈ 147 µM)	> 31.3 µg/mL	> 31.3 µg/mL	> 31.3 µg/mL	31.3 µg/mL (≈ 147 µM)	31.3 µg/mL (≈ 147 µM)	> 31.3 µg/mL	31.3 µg/mL (≈ 147 µM)	31.3 µg/mL (≈ 147 µM)	≥ 31.3 µg/mL	–	–	CCCCCCCCCN1CCNCC1 [Compound 4, 1-Nonyl Piperazine]	–	–	–	–
15.6 µg/mL (≈ 68.9 µM)	15.6 µg/mL (≈ 68.9 µM)	15.6 µg/mL (≈ 68.9 µM)	15.6 µg/mL (≈ 68.9 µM)	15.6 µg/mL (≈ 68.9 µM)	15.6 µg/mL (≈ 68.9 µM)	15.6 µg/mL (≈ 68.9 µM)	15.6 µg/mL (≈ 68.9 µM)	31.3 µg/mL (≈ 138 µM)	15.6 µg/mL (≈ 68.9 µM)	–	moderately active	–	CCCCCCCCCCN1CCNCC1 [Compound 5, 1-Decyl Piperazine]	–	–	–	–
15.6 µg/mL (≈ 64.9 µM)	7.8 µg/mL (≈ 32.4 µM)	15.6 µg/mL (≈ 64.9 µM)	15.6 µg/mL (≈ 64.9 µM)	7.8 µg/mL (≈ 32.4 µM)	7.8 µg/mL (≈ 32.4 µM)	7.8 µg/mL (≈ 32.4 µM)	15.6 µg/mL (≈ 64.9 µM)	31.3 µg/mL (≈ 130 µM)	7.8 µg/mL (≈ 32.4 µM)	–	moderately active	–	CCCCCCCCCCCN1CCNCC1 [Compound 6, 1-Undecyl Piperazine]	–	–	–	–
1.95 µg/mL (≈ 7.26 µM)	0.975 µg/mL (≈ 3.63 µM)	1.95 µg/mL (≈ 7.26 µM)	0.975 µg/mL (≈ 3.63 µM)	0.975 µg/mL (≈ 3.63 µM)	1.95 µg/mL (≈ 7.26 µM)	0.975 µg/mL (≈ 3.63 µM)	1.95 µg/mL (≈ 7.26 µM)	1.95 µg/mL (≈ 7.26 µM)	1.95 µg/mL (≈ 7.26 µM)	0.015 to 1.95 µg/mL (≈ 0.0559 to 7.26 µM)	–	–	CCCCCCCCCCCCCN1CCNCC1 [Compound 8, 1-Tridecyl Piperazine]	–	–	–	–
> 31.3 µg/mL	> 31.3 µg/mL	> 31.3 µg/mL	> 31.3 µg/mL	> 31.3 µg/mL	> 31.3 µg/mL	> 31.3 µg/mL	> 31.3 µg/mL	> 31.3 µg/mL	> 31.3 µg/mL	≥ 31.3 µg/mL	–	–	CCCCCCCCCCCCCCN1CCOCC1 [Compound 10, 4-Tetradecyl Morpholine]	–	–	–	–
> 31.3 µg/mL	> 31.3 µg/mL	> 31.3 µg/mL	> 31.3 µg/mL	> 31.3 µg/mL	> 31.3 µg/mL	> 31.3 µg/mL	> 31.3 µg/mL	> 31.3 µg/mL	> 31.3 µg/mL	–	–	–	Fc1ccc(C2(Cn3cncn3)CO2)c(F)c1 (stereo not shown) [Compound 14, 1-[[2-(2,4-Difluorophenyl)-2-oxiranyl]methyl]-1H-1,2,4-triazole]	inactivity	–	–	–
7.8 µg/mL (≈ 23.1 µM)	7.8 µg/mL (≈ 23.1 µM)	31.3 µg/mL (≈ 92.8 µM)	0.975 µg/mL (≈ 2.89 µM)	31.3 µg/mL (≈ 92.8 µM)	31.3 µg/mL (≈ 92.8 µM)	31.3 µg/mL (≈ 92.8 µM)	31.3 µg/mL (≈ 92.8 µM)	31.3 µg/mL (≈ 92.8 µM)	7.8 µg/mL (≈ 23.1 µM)	–	–	–	CN1CCN(CC(O)(Cn2cncn2)c2ccc(F)cc2F)CC1 (stereo not shown) [Compound 16]	–	< 10%	–	–
> 31.3 µg/mL	> 31.3 µg/mL	> 31.3 µg/mL	> 31.3 µg/mL	> 31.3 µg/mL	> 31.3 µg/mL	31.3 µg/mL (≈ 79.5 µM)	> 31.3 µg/mL	> 31.3 µg/mL	> 31.3 µg/mL	–	–	–	CCCCCN1CCN(CC(O)(Cn2cncn2)c2ccc(F)cc2F)CC1 (stereo not shown) [Compound 17, 2-(2,4-Difluorophenyl)-1-(1H-1,2,4-triazol-1-yl)-3-(4-pentylpiperazine)propan-2-ol]	basically inactive	–	–	–
3.9 µg/mL (≈ 8.67 µM)	0.975 µg/mL (≈ 2.17 µM)	1.95 µg/mL (≈ 4.34 µM)	0.975 µg/mL (≈ 2.17 µM)	7.8 µg/mL (≈ 17.3 µM)	15.6 µg/mL (≈ 34.7 µM)	7.8 µg/mL (≈ 17.3 µM)	15.6 µg/mL (≈ 34.7 µM)	0.48 µg/mL (≈ 1.07 µM)	15.6 µg/mL (≈ 34.7 µM)	–	–	–	CCCCCCCCCN1CCN(CC(O)(Cn2cncn2)c2ccc(F)cc2F)CC1 (stereo not shown) [Compound 19, 2-(2,4-Difluorophenyl)-1-(1H-1,2,4-triazol-1-yl)-3-(4-nonylpiperazine)propan-2-ol]	–	–	–	–
7.8 µg/mL (≈ 16.3 µM)	1.95 µg/mL (≈ 4.08 µM)	1.95 µg/mL (≈ 4.08 µM)	1.95 µg/mL (≈ 4.08 µM)	15.6 µg/mL (≈ 32.7 µM)	15.6 µg/mL (≈ 32.7 µM)	15.6 µg/mL (≈ 32.7 µM)	15.6 µg/mL (≈ 32.7 µM)	1.95 µg/mL (≈ 4.08 µM)	15.6 µg/mL (≈ 32.7 µM)	–	–	–	CCCCCCCCCCCN1CCN(CC(O)(Cn2cncn2)c2ccc(F)cc2F)CC1 (stereo not shown) [Compound 21, 2-(2,4-Difluorophenyl)-1-(1H-1,2,4-triazol-1-yl)-3-(4-undecylpiperazine)propan-2-ol]	–	–	–	–
1.95 µg/mL (≈ 3.86 µM)	1.95 µg/mL (≈ 3.86 µM)	0.975 µg/mL (≈ 1.93 µM)	0.975 µg/mL (≈ 1.93 µM)	7.8 µg/mL (≈ 15.4 µM)	–	1.95 µg/mL (≈ 3.86 µM)	–	0.975 µg/mL (≈ 1.93 µM)	–	–	–	–	CCCCCCCCCCCCCN1CCN(CC(O)(Cn2cncn2)c2ccc(F)cc2F)CC1 (stereo not shown) [Compound 23, 2-(2,4-Difluorophenyl)-1-(1H-1,2,4-triazol-1-yl)-3-(4-tridecylpiperazine)propan-2-ol]	–	–	–	–
7.8 µg/mL (≈ 15 µM)	1.95 µg/mL (≈ 3.75 µM)	0.975 µg/mL (≈ 1.88 µM)	1.95 µg/mL (≈ 3.75 µM)	31.3 µg/mL (≈ 60.2 µM)	3.9 µg/mL (≈ 7.5 µM)	1.95 µg/mL (≈ 3.75 µM)	1.95 µg/mL (≈ 3.75 µM)	0.48 µg/mL (≈ 0.924 µM)	3.9 µg/mL (≈ 7.5 µM)	–	–	–	CCCCCCCCCCCCCCN1CCN(CC(O)(Cn2cncn2)c2ccc(F)cc2F)CC1 (stereo not shown) [Compound 24, 2-(2,4-Difluorophenyl)-1-(1H-1,2,4-triazol-1-yl)-3-(4-tetradecylpiperazine)propan-2-ol]	–	–	> 50%	–
7.8 µg/mL (≈ 15.7 µM)	–	–	–	–	7.8 µg/mL (≈ 15.7 µM)	–	7.8 µg/mL (≈ 15.7 µM)	–	7.8 µg/mL (≈ 15.7 µM)	–	–	1–2 fold	CCCCCCCCCCN1CCN(CC(O)(Cn2cncn2)c2ccc(Cl)cc2Cl)CC1 (stereo not shown) [Compound 25, 2-(2,4-Dichlorophenyl)-1-(1H-1,2,4-triazol-1-yl)-3-(4-decylpiperazine)propan-2-ol]	–	–	22%	retained their full antifungal activity
> 31.3 µg/mL	> 31.3 µg/mL	15.6 µg/mL (≈ 48.1 µM)	1.95 µg/mL (≈ 6.01 µM)	> 31.3 µg/mL	> 31.3 µg/mL	3.9 to 31.3 µg/mL (≈ 12 to 96.5 µM)	31.3 µg/mL (≈ 96.5 µM)	–	7.8 to 31.3 µg/mL (≈ 24 to 96.5 µM)	–	–	–	OC(CN1CCOCC1)(Cn1cncn1)c1ccc(F)cc1F (stereo not shown) [Compound 27, 2-(2,4-Difluorophenyl)-1-(1H-1,2,4-triazol-1-yl)-3-(mopholine)-propan-2-ol]	inactive	–	–	–
31.3 µg/mL (≈ 85.2 µM)	31.3 µg/mL (≈ 85.2 µM)	> 31.3 µg/mL	> 31.3 µg/mL	31.3 µg/mL (≈ 85.2 µM)	31.3 µg/mL (≈ 85.2 µM)	> 31.3 µg/mL	> 31.3 µg/mL	> 31.3 µg/mL	> 31.3 µg/mL	–	–	–	OC(CNCCN1CCOCC1)(Cn1cncn1)c1ccc(F)cc1F (stereo not shown) [Compound 28, 2-(2,4-Difluorophenyl)-1-(1H-1,2,4-triazol-1-yl)-3-(4-(2-aminoethyl)morpholine)propan-2-ol]	inactive	–	–	–
